Test results published in US20230265151A1, “GIP/GLP1 CO-AGONIST COMPOUNDS” (priority 2020, published 2023).
Read-outs that look alike come from different tables or passages of the source. *1 amine or outer side, *2 acyl side, *3 side chain or, on linkers, in order; H or OH if unused. Where a SMILES comes first, the peptide text is derived from it. Side-chain parts run from the residue outwards. [ ]: non-standard residue; d: D form. The star is where a group is joined. αMePhe(2-F) = C[C@](N)(Cc1ccccc1F)C(=O)O; γGlu = O=C(O)[C@H](CCC(=O)[*:2])N[*:1]; αMeY = C[C@](N)(Cc1ccc(O)cc1)C(=O)O; αMeL = CC(C)C[C@](C)(N)C(=O)O; Lauroyl = CCCCCCCCCCCC(=O)*; AEEA = NCCOCCOCC(=O)O; Aib = CC(C)(N)C(=O)O

Tests used:
Type in all cases: cell-based
hGCGR = target: T1, hGCGR (Homo sapiens, UniProt P47871); assay: Functional cAMP formation (HTRF) in HEK-293 clonal cells expressing hGCGR, 0.1% bovine casein, without or with 1.0% human serum albumin; conditions: cAMP, 37° C.
T1 construct: expressed in transfected cells
T1 sequence (P47871 26-477): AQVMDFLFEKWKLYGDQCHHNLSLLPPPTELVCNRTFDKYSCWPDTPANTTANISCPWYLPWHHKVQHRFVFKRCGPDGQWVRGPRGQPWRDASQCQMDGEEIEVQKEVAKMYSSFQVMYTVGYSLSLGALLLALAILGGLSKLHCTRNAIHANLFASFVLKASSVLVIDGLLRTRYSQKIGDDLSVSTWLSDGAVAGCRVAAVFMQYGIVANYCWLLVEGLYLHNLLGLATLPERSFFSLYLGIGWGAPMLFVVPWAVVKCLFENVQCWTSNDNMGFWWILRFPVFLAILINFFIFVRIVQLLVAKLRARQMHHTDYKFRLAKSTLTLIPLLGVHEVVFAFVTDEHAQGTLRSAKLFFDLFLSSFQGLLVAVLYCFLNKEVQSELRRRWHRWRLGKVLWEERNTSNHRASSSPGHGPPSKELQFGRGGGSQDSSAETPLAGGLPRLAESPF
Outline: (§1)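 Cells were stimulated with peptide for 30 min at 37° C, then lysed in buffer carrying cAMP-d2 and anti-cAMP Eu3+-cryptate for a competitive HTRF read after at least 60 min at room temperature. The 665/620 nm ratio was converted to nM cAMP against a standard curve.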

hGIPR = target: T2, hGIPR (Homo sapiens, UniProt P48546); assay: Functional cAMP formation (HTRF) in HEK-293 clonal cells expressing hGIPR, 0.1% bovine casein, without or with 1.0% human serum albumin; conditions: 37° C.; for Emax: HEK293, cAMP, percent of maximal response to GIP(1-42)NH2, read-out: hGIPR Emax, % ± SEM; for EC50: cAMP, 0.1% bovine casein (no human serum albumin), geometric mean
T2 construct: expressed in transfected cells
T2 sequence (P48546 22-466): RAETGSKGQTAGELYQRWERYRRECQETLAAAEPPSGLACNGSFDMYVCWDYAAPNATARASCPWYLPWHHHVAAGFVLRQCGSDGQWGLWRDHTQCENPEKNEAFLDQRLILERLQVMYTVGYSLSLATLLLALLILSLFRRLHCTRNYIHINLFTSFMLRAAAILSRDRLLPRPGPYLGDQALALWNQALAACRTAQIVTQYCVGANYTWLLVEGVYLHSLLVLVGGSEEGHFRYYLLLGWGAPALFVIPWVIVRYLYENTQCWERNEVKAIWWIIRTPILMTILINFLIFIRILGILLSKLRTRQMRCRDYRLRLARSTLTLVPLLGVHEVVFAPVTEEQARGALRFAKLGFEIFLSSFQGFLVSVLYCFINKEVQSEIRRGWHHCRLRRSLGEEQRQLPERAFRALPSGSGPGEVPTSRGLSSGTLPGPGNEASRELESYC
Outline: as §1

hGLP-1R = hGLP-1R (Homo sapiens, UniProt P43220); assay: Functional cAMP formation (HTRF) in HEK-293 clonal cells expressing hGLP-1R, 0.1% bovine casein, without or with 1.0% human serum albumin; set-up: expressed in transfected cells; conditions: for Emax: percent of maximal response to GLP-1(7-36)NH2; for EC50: cAMP
Sequence of hGLP-1R (P43220 24-463): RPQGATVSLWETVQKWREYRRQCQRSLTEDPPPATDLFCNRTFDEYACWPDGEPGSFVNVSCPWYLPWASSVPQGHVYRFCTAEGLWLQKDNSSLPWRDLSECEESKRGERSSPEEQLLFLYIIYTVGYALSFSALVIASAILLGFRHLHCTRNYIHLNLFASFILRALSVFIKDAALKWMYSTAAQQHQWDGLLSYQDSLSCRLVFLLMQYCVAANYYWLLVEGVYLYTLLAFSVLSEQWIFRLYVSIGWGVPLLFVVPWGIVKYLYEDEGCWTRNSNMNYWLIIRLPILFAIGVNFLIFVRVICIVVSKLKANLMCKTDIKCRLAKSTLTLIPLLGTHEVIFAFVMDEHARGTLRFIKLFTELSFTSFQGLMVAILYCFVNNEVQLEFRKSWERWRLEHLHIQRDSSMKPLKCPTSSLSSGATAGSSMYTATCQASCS
Outline: as §1

[1] = 0.1% bovine casein (no human serum albumin), geometric mean, read-out: hGCGR EC50, nM (SEM, n)
[2] = 0.1% bovine casein and 1.0% human serum albumin, geometric mean (SEM, n), read-out: hGCGR EC50, nM (SEM, n)
[3] = 0.1% bovine casein and 1.0% human serum albumin
[4] = read-out: hGIPR EC50, nM (SEM, n)
[5] = 37° C., 0.1% bovine casein (no human serum albumin), geometric mean, read-out: hGLP-1R EC50, nM (SEM, n)
[6] = HEK293, cAMP, 37° C., 0.1% bovine casein and 1.0% human serum albumin, read-out: hGLP-1R Emax, % ± SEM
[7] = 37° C., 0.1% bovine casein and 1.0% human serum albumin, geometric mean (SEM, n), read-out: hGLP-1R EC50, nM (SEM, n)

SMILES	EC50 (hGCGR; [1]) [nM]	EC50 (hGCGR; [2]) [nM]	Emax (hGIPR; [3]) [%]	EC50 (hGIPR; [4]) [nM]	Emax (hGLP-1R; HEK293, cAMP, 37° C., 0.1% bovine casein, arithmetic mean, read-out: hGLP-1R Emax, % ± SEM) [%]	EC50 (hGLP-1R; [5]) [nM]	Emax (hGIPR; 0.1% bovine casein, arithmetic mean) [%]	Emax (hGLP-1R; [6]) [%]	EC50 (hGLP-1R; [7]) [nM]	EC50 (hGCGR; hGCGR EC50, nM (SEM, n), 0.1% bovine casein (no human serum albumin), geometric mean) [nM]	EC50 (hGCGR; hGCGR EC50, nM (SEM, n), 0.1% bovine casein and 1.0% human serum albumin, geometric mean (SEM, n)) [nM]	EC50 (hGIPR; hGIPR EC50, nM (SEM, n)) [nM]	Emax (hGLP-1R; HEK293, read-out: hGLP-1R Emax, % ± SEM, cAMP, 37° C., 0.1% bovine casein, arithmetic mean) [%]	EC50 (hGLP-1R; hGLP-1R EC50, nM (SEM, n), 37° C., 0.1% bovine casein (no human serum albumin), geometric mean) [nM]
CC[C@H](C)[C@H](NC(=O)[C@H](CC(C)C)NC(=O)[C@](C)(Cc1ccc(O)cc1)NC(=O)[C@H](CCCCNC(=O)COCCOCCNC(=O)COCCOCCNC(=O)CC[C@H](NC(=O)CCCCCCCCCCCCCCC(=O)O)C(=O)O)NC(=O)[C@@H](NC(=O)[C@H](Cc1ccccc1)NC(=O)[C@H](CCCN)NC(=O)C(C)(C)NC(=O)[C@H](CCC(N)=O)NC(=O)[C@H](C)NC(=O)[C@H](CCC(N)=O)NC(=O)[C@H](CCCN)NC(=O)[C@H](CC(=O)O)NC(=O)[C@H](CC(C)C)NC(=O)[C@](C)(CC(C)C)NC(=O)[C@@H](NC(=O)C(C)(C)NC(=O)[C@H](Cc1ccncc1)NC(=O)[C@H](CC(=O)O)NC(=O)[C@H](CO)NC(=O)[C@@H](NC(=O)[C@](C)(Cc1ccccc1F)NC(=O)[C@@H](NC(=O)CNC(=O)[C@H](CCC(=O)O)NC(=O)C(C)(C)NC(=O)[C@@H](N)Cc1ccc(O)cc1)[C@@H](C)O)[C@@H](C)O)[C@@H](C)CC)[C@@H](C)CC)C(=O)N[C@@H](CCCCNC(=O)COCCOCCNC(=O)COCCOCCNC(=O)CC[C@H](NC(=O)CCCCCCCCCCCCCCC(=O)O)C(=O)O)C(=O)NCC(=O)NCC(=O)N1CCC[C@H]1C(=O)N[C@@H](CO)C(=O)N[C@@H](CO)C(=O)NCC(=O)N[C@@H](C)C(=O)N1CCC[C@H]1C(=O)N1CCC[C@H]1C(=O)N1CCC[C@H]1C(=O)N[C@@H](CO)C(N)=O [Example 443]	> 9950	> 9950	91.1	0.0178	114	0.294								
CC[C@H](C)[C@H](NC(=O)[C@H](CC(C)C)NC(=O)[C@](C)(Cc1ccc(O)cc1)NC(=O)[C@H](CCCCNC(=O)COCCOCCNC(=O)COCCOCCNC(=O)CC[C@H](NC(=O)CCCCCCCCCCCCC(=O)O)C(=O)O)NC(=O)[C@@H](NC(=O)[C@H](Cc1ccccc1)NC(=O)[C@H](Cc1ccncc1)NC(=O)C(C)(C)NC(=O)[C@H](CCC(N)=O)NC(=O)[C@H](C)NC(=O)[C@H](CCC(N)=O)NC(=O)[C@H](CCCN)NC(=O)[C@H](CC(=O)O)NC(=O)[C@H](CC(C)C)NC(=O)[C@](C)(CC(C)C)NC(=O)[C@@H](NC(=O)C(C)(C)NC(=O)[C@H](Cc1ccncc1)NC(=O)[C@H](CC(=O)O)NC(=O)[C@H](CO)NC(=O)[C@@H](NC(=O)[C@](C)(Cc1ccccc1F)NC(=O)[C@@H](NC(=O)CNC(=O)[C@H](CCC(=O)O)NC(=O)C(C)(C)NC(=O)[C@@H](N)Cc1ccc(O)cc1)[C@@H](C)O)[C@@H](C)O)[C@@H](C)CC)[C@@H](C)CC)C(=O)N[C@@H](CCCCNC(=O)COCCOCCNC(=O)COCCOCCNC(=O)CC[C@H](NC(=O)CCCCCCCCCCCCC(=O)O)C(=O)O)C(=O)NCC(=O)NCC(=O)N1CCC[C@H]1C(=O)N[C@@H](CO)C(=O)N[C@@H](CO)C(=O)NCC(=O)N[C@@H](C)C(=O)N1CCC[C@H]1C(=O)N1CCC[C@H]1C(=O)N1CCC[C@H]1C(=O)N[C@@H](CO)C(N)=O [Example 444]	> 9950	> 9950	83.6	0.0157		0.289	93.6	98.8	7.51					
CCCCCCCCCCCC(=O)N[C@@H](CCC(=O)NCCOCCOCC(=O)NCCOCCOCC(=O)NCCCC[C@H](NC(=O)CNC(=O)[C@H](CC(=O)O)NC(=O)[C@H](CC(C)C)NC(=O)[C@](C)(CC(C)C)NC(=O)[C@@H](NC(=O)C(C)(C)NC(=O)[C@H](CCCCNC(=O)COCCOCCNC(=O)COCCOCCNC(=O)CC[C@H](NC(=O)CCCCCCCCCCC)C(=O)O)NC(=O)[C@H](CC(=O)O)NC(=O)[C@H](CO)NC(=O)[C@@H](NC(=O)[C@](C)(Cc1ccccc1F)NC(=O)[C@@H](NC(=O)CNC(=O)[C@H](CCC(=O)O)NC(=O)C(C)(C)NC(=O)[C@@H](N)Cc1ccc(O)cc1)[C@@H](C)O)[C@@H](C)O)[C@@H](C)CC)C(=O)N[C@@H](C)C(=O)N[C@@H](CCC(N)=O)C(=O)NC(C)(C)C(=O)N[C@@H](CCC(=O)O)C(=O)N[C@@H](Cc1ccccc1)C(=O)N[C@H](C(=O)N[C@H](CCC(=O)O)C(=O)N[C@@](C)(Cc1ccc(O)cc1)C(=O)N[C@@H](CC(C)C)C(=O)N[C@H](C(=O)N[C@@H](CCC(=O)O)C(=O)NCC(=O)NCC(=O)N1CCC[C@H]1C(=O)N[C@@H](CO)C(=O)N[C@@H](CO)C(=O)NCC(=O)N[C@@H](C)C(=O)N1CCC[C@H]1C(=O)N1CCC[C@H]1C(=O)N1CCC[C@H]1C(=O)N[C@@H](CO)C(N)=O)[C@@H](C)CC)[C@@H](C)CC)C(=O)O [Example 445] (H-Y[Aib]EGT[αMePhe(2-F)]TSDK([AEEA-AEEA-γGlu-Lauroyl])[Aib]I[αMeL]LDGK([AEEA-AEEA-γGlu-Lauroyl])AQ[Aib]EFI[dE][αMeY]LIEGGPSSGAPPPS-NH2; N-terminus assumed)	> 9950	> 9950	91.4	0.00728		0.0781		100	13.1					
CC[C@H](C)[C@H](NC(=O)[C@H](CC(C)C)NC(=O)[C@](C)(Cc1ccc(O)cc1)NC(=O)[C@H](CCCCNC(=O)COCCOCCNC(=O)COCCOCCNC(=O)CC[C@H](NC(=O)CCCCCCCCCOc1ccc(C(=O)O)cc1)C(=O)O)NC(=O)[C@@H](NC(=O)[C@H](Cc1ccccc1)NC(=O)[C@H](CCCN)NC(=O)C(C)(C)NC(=O)[C@H](CCC(N)=O)NC(=O)[C@H](C)NC(=O)[C@H](CCC(N)=O)NC(=O)[C@H](CCCN)NC(=O)[C@H](CC(=O)O)NC(=O)[C@H](CC(C)C)NC(=O)[C@](C)(CC(C)C)NC(=O)[C@@H](NC(=O)C(C)(C)NC(=O)[C@@H](NC(=O)[C@H](CC(=O)O)NC(=O)[C@H](CO)NC(=O)[C@@H](NC(=O)[C@](C)(Cc1ccccc1F)NC(=O)[C@@H](NC(=O)CNC(=O)[C@H](CCC(=O)O)NC(=O)C(C)(C)NC(=O)[C@@H](N)Cc1ccc(O)cc1)[C@@H](C)O)[C@@H](C)O)C(C)C)[C@@H](C)CC)[C@@H](C)CC)C(=O)N[C@@H](CCCCNC(=O)COCCOCCNC(=O)COCCOCCNC(=O)CC[C@H](NC(=O)CCCCCCCCCOc1ccc(C(=O)O)cc1)C(=O)O)C(=O)NCC(=O)NCC(=O)N1CCC[C@H]1C(=O)N[C@@H](CO)C(=O)N[C@@H](CO)C(=O)NCC(=O)N[C@@H](C)C(=O)N1CCC[C@H]1C(=O)N1CCC[C@H]1C(=O)N1CCC[C@H]1C(=O)N[C@@H](CO)C(N)=O [Example 447]										> 9950	> 9950	0.017	105	0.219
